ChEMBL document CHEMBL5584282, “The New Frontier in Neurotherapeutics: From Brain Stimulation to Novel Psychotropics” (ACS Med Chem Lett, 2024)
Calls of active or inactive are those of the source. No cut-off for these calls is given here.

Columns and labels:
Assay type in all cases: functional, cell-based
Cortical neurone [1] = assay: Neuroplasticity effect in Wistar rat brain cortical neuron assessed as neurite outgrowth by measuring increase in neurite number at <=10 uM incubated for 72 hrs by DAPI staining based imaging analysis
Cortical neurone [2] = assay: Neuroplasticity effect in Wistar rat brain cortical neuron assessed as neurite outgrowth by measuring increase in neurite length at <=10 uM incubated for 72 hrs by DAPI staining based imaging analysis
Cortical neurone [3] = assay: Neuroplasticity effect in Wistar rat brain cortical neuron assessed as neurite outgrowth by measuring increase in neurite branching at <=10 uM incubated for 72 hrs by DAPI staining based imaging analysis

CN1CCc2oc3cccc(F)c3c2CC1
Activity (Cortical neurone [1]): inactive
Activity (Cortical neurone [2]): Active
Activity (Cortical neurone [3]): Active

COc1ccc2c3c(oc2c1)CCCN(C1CCC1)C3
Activity (Cortical neurone [1]): Active
Activity (Cortical neurone [2]): Active
Activity (Cortical neurone [3]): Active

Fc1cccc2oc3c(c12)CN(C1CCC1)CCC3
Activity (Cortical neurone [1]): Active
Activity (Cortical neurone [2]): Active
Activity (Cortical neurone [3]): Active

COc1ccc2c3c(oc2c1)CCCN(CC(F)(F)F)C3
Activity (Cortical neurone [1]): Active
Activity (Cortical neurone [2]): Active
Activity (Cortical neurone [3]): Active

COc1ccc2c3c(sc2c1)CCNCC3
Activity (Cortical neurone [1]): Active
Activity (Cortical neurone [2]): Active
Activity (Cortical neurone [3]): Active

COc1ccc2c3c(oc2c1)CCCN(C)C3
Activity (Cortical neurone [1]): Active
Activity (Cortical neurone [2]): Active
Activity (Cortical neurone [3]): Active

FC(F)(F)Oc1cccc2sc3c(c12)CCN(C1CCC1)CC3
Activity (Cortical neurone [1]): Active
Activity (Cortical neurone [2]): Active
Activity (Cortical neurone [3]): Active

COc1cccc2oc3c(c12)CCNCC3
Activity (Cortical neurone [1]): inactive
Activity (Cortical neurone [2]): inactive
Activity (Cortical neurone [3]): inactive

Fc1cccc2oc3c(c12)CN(CC(F)(F)F)CCC3
Activity (Cortical neurone [1]): Active
Activity (Cortical neurone [2]): Active
Activity (Cortical neurone [3]): Active

CN1CCCc2oc3cccc(F)c3c2C1
Activity (Cortical neurone [1]): Active
Activity (Cortical neurone [2]): Active
Activity (Cortical neurone [3]): Active

Fc1ccc2c3c(oc2c1)CCCNC3
Activity (Cortical neurone [1]): Active
Activity (Cortical neurone [2]): Active
Activity (Cortical neurone [3]): Active

COc1cccc2oc3c(c12)CN(C1CCC1)CCC3
Activity (Cortical neurone [1]): inactive
Activity (Cortical neurone [2]): inactive
Activity (Cortical neurone [3]): inactive

Fc1cccc2oc3c(c12)CCN(C1CCC1)CC3
Activity (Cortical neurone [1]): Active
Activity (Cortical neurone [2]): Active
Activity (Cortical neurone [3]): inactive

COc1cccc2oc3c(c12)CCN(C1CCC1)CC3
Activity (Cortical neurone [1]): Active
Activity (Cortical neurone [2]): Active
Activity (Cortical neurone [3]): Active

FC(F)(F)CN1CCc2sc3ccccc3c2CC1
Activity (Cortical neurone [1]): inactive
Activity (Cortical neurone [2]): Active
Activity (Cortical neurone [3]): Active
